Experimental data taken from article PMC9322761, “Design, Synthesis and Biological Characterization of Histone Deacetylase 8 (HDAC8) Proteolysis Targeting Chimeras (PROTACs) with Anti-Neuroblastoma Activity” (International Journal of Molecular Sciences, 2022).

Legend:
[1] = system: acetylated SMC3; test: Acetylation of HDAC8 substrate SMC3 in SK-N-BE(2)-C cells (Western blot); format: cell-based, human; settings: 10 µM
Protocol: To test the degradation of HDAC8 with the developed PROTACs, we selected the most promising compounds obtained from the cellular neuroblastoma testing; namely CRBN_1b, CRBN_1d, CRBN_1e, HyT_1m, and HyT_1p. Whole cell lysates from treated SK-N-BE(2)-C neuroblastoma cells were taken and the protein levels for HDAC8 and the acetylation of its substrate SMC3 were determined (Figure 6). As a control for HDAC6, we also assessed acetylation levels of α-tubulin. […]. A clear dose-dependent degradation of HDAC8 by PROTAC CRBN_1e was observed (Figure 6C). After 48 h, the HDAC8 protein level was back to baseline, presumably due to de novo protein synthesis. […]. Western blot analysis was performed as described previously (Kolbinger et al.). […]
Figure 6 (A) SK-N-BE(2)-C neuroblastoma cells were treated for indicated time points with 10 µM of PROTACs. Degradation of HDAC8 and acetylation of HDAC8 target was analyzed via Western blot. […] Acetylation of HDAC8 target SMC3 and HDAC6 target tubulin, as well as total HDAC8 levels, were assessed by Western blot. Quantified ac-SMC3 or ac-tubulin expression, respectively, was normalized to the respective tubulin loading control and to the solvent control (DMSO). This quantification is reflected by the numbers below each blot. […] Total HDAC6, total HDAC1, total HDAC8, and acetyl-histone H4 expression levels, were assessed by Western blot. […]

[2] = biological target: T1, HDAC8 (Homo sapiens, UniProt Q9BY41); test: HDAC8 degradation in SK-N-BE(2)-C neuroblastoma cells (Western blot); format: cell-based; design: endogenous in cells; host or cells: SK-N-BE(2)-C; settings: SK-N-BE(2)-C cells; for HDAC8 degradation: up to 10 µM, Western blot
T1 sequence (Q9BY41 1-377): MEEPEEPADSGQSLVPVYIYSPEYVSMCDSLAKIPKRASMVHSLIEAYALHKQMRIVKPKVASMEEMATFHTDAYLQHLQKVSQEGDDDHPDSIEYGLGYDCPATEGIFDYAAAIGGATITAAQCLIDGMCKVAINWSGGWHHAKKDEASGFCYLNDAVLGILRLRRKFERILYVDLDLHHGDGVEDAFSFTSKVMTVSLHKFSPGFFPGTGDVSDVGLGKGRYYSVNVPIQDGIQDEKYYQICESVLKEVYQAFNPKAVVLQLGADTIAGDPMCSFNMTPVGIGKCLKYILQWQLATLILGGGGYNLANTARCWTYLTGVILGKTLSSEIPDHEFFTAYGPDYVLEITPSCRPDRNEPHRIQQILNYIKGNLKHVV
Protocol: Whole cell lysates from treated SK-N-BE(2)-C neuroblastoma cells were taken and the protein levels for HDAC8 and the acetylation of its substrate SMC3 were determined (Figure 6). As a control for HDAC6, we also assessed acetylation levels of α-tubulin. […] Western blot analysis was performed as described previously (Kolbinger et al.).
Figure 6 (A) SK-N-BE(2)-C neuroblastoma cells were treated for indicated time points with 10 µM of PROTACs. Degradation of HDAC8 and acetylation of HDAC8 target was analyzed via Western blot. (B) SK-N-BE(2)-C neuroblastoma cells were treated for 6 h with indicated concentrations of HyT_1p, CRBN_1b and HyT_1m. Acetylation of HDAC8 target SMC3 and HDAC6 target tubulin, as well as total HDAC8 levels, were assessed by Western blot. Quantified ac-SMC3 or ac-tubulin expression, respectively, was normalized to the respective tubulin loading control and to the solvent control (DMSO). This quantification is reflected by the numbers below each blot. […] Total HDAC6, total HDAC1, total HDAC8, and acetyl-histone H4 expression levels, were assessed by Western blot. Total GAPDH protein levels served as a loading control (LC). * unspecific bands obtained through reprobing of the membrane.

[3] = system: IMR-32 cells; test: Cell viability / proliferation (trypan blue, viable cell count) in neuroblastoma cells; format: cell-based, human; settings: 5 and 10 µM
Protocol: Moreover, we treated neuroblastoma IMR-32 cells with the remaining PROTACs and counted the resulting viable cells. We quantified the percentage of dead cells as shown in (Figure 5B,C). In addition, cell proliferation was assessed via counting of viable cells (Figure 5D,E). […] As reference, the HDAC8 inhibitor PCI-34501 was used.
Adherent cells were detached using trypsin–EDTA (ThermoFisher Scientific, Bremen, Germany) and pooled with corresponding supernatant, centrifuged, and resuspended in 1 mL of cell culture medium. Cell viability (viable cell number, % viability, % dead cells) was measured by automated trypan blue staining using the Vi-Cell XR Cell Viability Analyzer (Beckman Coulter, Krefeld, Germany).
Figure 5 (A) Neuroblastoma SK-N-BE(2)-C cells; Colony Assay, 10 days (compound treatment within first 96 h). Stained with crystal violet and quantified with ImageJ. (B,C) Trypan Blue assay for detection of dead cells. Neuroblastoma IMR-32 cells were either treated with 5 µM (B) or 10 µM (C). (D,E) Cell proliferation assessed via counting of viable cells. IMR-32 cells were either treated with 5 µM (D) or 10 µM (E) PROTACs. HDAC8i PCI-34501 served as a positive control, untreated (MEM) and solvent (DMSO) treated cells served as negative controls.

[4] = Non-enzymatic stability in assay medium (HPLC); settings: 37 °C, 10 µM, pH7.4
Protocol: Non-enzymatic stability of selected final compounds was determined using 10 µM concentration of the tested PROTACs in one of the following assay media; Dulbecco’s modified Eagle medium (DMEM) (50%)/dimethylsulfoxid (10%)/acetonitrile (40%) or DMEM (50%)/dimethylsulfoxid (10%)/methanol (40%) mixture at pH7.4. The formed solution mixtures were incubated for 0, 6, 12, and 24 h at 37 °C. Analyte decomposition was monitored by HPLC using XTerra RP18 column (3.5 mm, 3.9 mm × 100 mm) from the manufacturer Waters (Milford, MA, USA) and two LC-10AD pumps, a SPD-M10A VP PDA detector, and a SIL-HT autosampler, all from the manufacturer Shimadzu (Kyoto, Japan).

| SMILES | Hyperacetylation of HDAC8 substrate SMC3 [1] | HDAC8 degradation [2] | Effect in cell proliferation assay (viable cell count) [3] | Non-enzymatic stability, compound remaining ([4]; 6 h) | Non-enzymatic stability, compound remaining ([4]; 24 h) | Remaining HDAC8 protein ([2]; 6 h, 10 µM) |
| --- | --- | --- | --- | --- | --- | --- |
| COC(=O)c1ccc(C)c(NCc2ccc(OCc3cn(CCCCCC(=O)Nc4cccc5c4C(=O)N(C4CCC(=O)NC4=O)C5=O)nn3)cc2)c1 (stereo not drawn) [33a] | did not show hyperacetylation | did not show hyperacetylation of SMC3 or HDAC8 degradation |  |  |  |  |
| COc1ccc(C(=O)NO)cc1NC(=O)c1ccc(NC(=O)CCCCCCCNc2cccc3c2C(=O)N(C2CCC(=O)NC2=O)C3=O)cc1 (stereo not drawn) [CRBN_1b] |  | strong HDAC8 degradation | strongest effect | 100.0% | 91.6% | 40% |
| O=C(COc1ccc(CNc2cc(C(=O)NO)ccc2Cl)cc1)NCCCCCNC(=O)CC12CC3CC(CC(C3)C1)C2 [HyT_1p] |  | failed to degrade HDAC8 | strongest effect |  |  |  |
